From US20230149419A1, “COMPOSITION FOR PREVENTING OR TREATING NEUROINFLAMMATORY DISEASES, COMPRISING CHLORPROMAZINE” (GliaCellTech Inc., priority 2020, published 2023)

What was measured:
[1] = system: REV-ERBα protein in primary microglia from wild-type mice; assay: REV-ERBα protein expression in primary microglia (western blotting), wild-type; format: cell-based, mouse
Procedure: Effects were analyzed in the experimental group not treated with chlorpromazine on the obtained microglia and the experimental group treated with chlorpromazine at a dose of 0.5 μM. For analysis of REV-ERBα protein expression levels, western blotting was carried out. Specifically, primary microglia were lysed in a 1% Triton X-100 lysis buffer (1% Triton X-100, 250 mM sucrose, 1 mM EDTA, 1 mM phenylmethylsulfonyl fluoride, and 50 mM NaCl in 20 mM Tris-HCl, pH 7.4) with 1×protease and phosphatase inhibitors (Thermo Fisher Scientific) and 0.1 M dithiothreitol (Sigma-Aldrich). The cell lysates were separated by sodium dodecyl sulfate-polyacrylamide gel electrophoresis and transferred to polyvinylidene fluoride membranes. The membranes were incubated with the appropriate primary antibodies, and bound antibodies were detected by species-specific, horseradish peroxidase-conjugated secondary antibodies. Chemiluminescence detection was performed to analyze the protein bands of interest.

wild-type mice = assay: Y-maze test, wild-type mice; format: in vivo, mouse; settings: for Y-maze Alternation % / Y-maze No. of Arm entry: chlorpromazine 0.25 mg/kg i.p., mean±SEM
Procedure: (§1) Specifically, the Y-maze was used to evaluate spatial working memory. The assay was conducted in white plastic arms of a Y-shaped maze. A mouse was placed in the center of the maze and was allowed to freely explore the arms for 5 min. The experiment was recorded with EthoVision software (Noldus). The number of arm entries and the number of triads were analyzed to calculate the percentage of alternation by dividing the number of three consecutive arm entries (triads) by the number of possible triads×100 (total arm entries−2).
(§2) An examination was made to see whether LPS-induced inflammation causes memory decline and chlorpromazine reverses the LPS-induced inflammation in disease animal models. To analyze memory and behavior performance, the Y-maze test as in Example 4 was conducted.

[2] = system: primary microglia from wild-type mice; assay: LPS-induced inflammatory cytokine secretion in primary microglia (ELISA), wild-type; format: cell-based, mouse
Procedure: (§3) Primary microglia were obtained from wild-type mice and Psen2^N141I/+ mice with Alzheimer's disease. Specifically, brains were excised from neonatal mice 1 to 3 days old and cells were obtained therefrom. The cells were cultured in Dulbecco's modified Eagle's medium (DMEM, Corning) supplemented with 10% heat-inactivated fetal bovine serum (HI-FBS, Hyclone) and 1% penicillin-streptomycin (Hyclone). Primary microglia were isolated in vitro by tapping after 12 days of culturing. Purity of primary microglia was estimated by immunostaining with an antibody against Iba-1, which is a microglial marker.
(§4) In this regard, the primary microglia were preincubated with or without 0.5 μM chlorpromazine for 30 min before LPS treatment. Anti-inflammatory effects were compared and analyzed between the test groups.

[3] = system: Nr1d1 mRNA in primary microglia from wild-type mice; assay: Nr1d1 mRNA expression in primary microglia (qRT-PCR), wild-type; format: cell-based, mouse
Procedure: (§5) Effects were analyzed in the experimental group not treated with chlorpromazine on the obtained microglia and the experimental group treated with chlorpromazine at a dose of 0.5 μM.

[4] = system: primary microglia from wild-type mice; assay: LPS-induced cytokine mRNA expression in primary microglia (qRT-PCR), wild-type; format: cell-based, mouse
Procedure: as §3, §4
The culture of each group was measured for microglial mRNA expression levels of the target cytokines by qRT-PCR (quantitative RT-PCR). Specifically, RNA was isolated from the microglia and cDNA was synthesized using an ImProm-II Reverse Transcriptase kit (Promega). PCR primers were commercially available (Cosmo Genetech). qRT-PCR was performed using Taq Polymerase (Invitrogen) and mouse cDNA-specific primers listed in Table 6, below. In addition, TOPreal™ qPCR 2×PreMIX (SYBR Green with low ROX) (Enzynomics) was used. Amplification (50 cycles) was performed for 50 cycles with all primers in a CFX96 Real-Time System (Bio-Rad). Actb was used as the reference genes for normalization.

[5] = system: Psen2 mutation mouse model of Alzheimer's disease; assay: Y-maze test, Psen2 mutation mouse model of Alzheimer's disease; format: in vivo; settings: for Y-maze Alternation % / Y-maze No. of Arm entry: chlorpromazine 0.25 mg/kg i.p., mean±SEM
Procedure: as §1, §2

[6] = system: Nr1d1 mRNA in primary microglia from Psen2 mouse model of Alzheimer's disease; assay: Nr1d1 mRNA expression in primary microglia (qRT-PCR), Psen2 mutation; format: cell-based
Procedure: as §5

[7] = WT microglia, no LPS, 0.5 μM chlorpromazine (Group 28), mean±SEM
[8] = wild-type/LPS(+)/CPZ(+) (Group 44), LPS 0.35 μg/kg
[9] = wild-type/LPS(−)/CPZ(+) (Group 42)
[10] = WT microglia, LPS 1 μg/mL 12 h, preincubated 0.5 μM chlorpromazine 30 min (Group 6)
[11] = WT microglia, LPS 1 μg/mL 12 h, 0.5 μM chlorpromazine (Group 6)
[12] = Alzheimer's disease model/LPS(+)/CPZ(+) (Group 48), LPS 0.35 μg/kg
[13] = Alzheimer's disease model/LPS(−)/CPZ(+) (Group 46)

`CN(C)CCCN1c2ccccc2Sc2ccc(Cl)cc21` [CPZ, 3-(2-chloro-10H-phenothiazin-10-yl)-N,N-dimethyl-propan-1-amine] was tested, and the REV-ERBα protein expression [1, 7] was 0.956 ± 0.096 fold, the “REV-ERBα protein expression level (in words)” value ([1]; wild-type microglia, group 28) was “no effect” and the “memory performance, arm alternation in Y-maze (in words)” value (wild-type mice; wild-type mice, chlorpromazine alone (group 42) or with LPS (group 44)) was “normal memory performance”. For the same compound, the “Y-maze Alternation %” value (wild-type mice; [8]) was 64.333 ± 3.175%, the “Y-maze No. of Arm entry” value (wild-type mice; [8]) was 17.889 ± 1.136 and the “Y-maze Alternation %” value (wild-type mice; [9]) was 66.667 ± 4.681%. The “Y-maze No. of Arm entry” value (wild-type mice; [9]) was 20.167 ± 1.537, the “Inflammatory cytokine secreted CCL2” value [2, 10] was 948.716 pg/mL and the “Inflammatory cytokine secreted CCL5” value [2, 10] was 948.716 pg/mL. For the same compound, the “Inflammatory cytokine secreted CXCL1” value [2, 10] was 937.727 pg/mL, the “Inflammatory cytokine secreted TNF-α” value [2, 10] was 1414.237 pg/mL and the “Inflammatory cytokine secreted IL-6” value ([2]; WT microglia, LPS 1 μg/mL 12 h, preincubated 0.5 μM chlorpromazine 30 min (Group 6), mean) was 2228.546 pg/mL. For the same compound, the “protein levels of circadian clock-controlled cytokines (in words)” value ([2]; wild-type microglia, groups 5 and 6, chlorpromazine 0.5 μM, LPS) was “not affected”, the “Nr1d1 mRNA expression” value [3, 7] was 0.860 ± 0.040 fold and the “Nr1d1 mRNA expression level (in words)” value ([3]; wild-type microglia, chlorpromazine 0.5 μM) was “ineffective”. For the same compound, the “Inflammatory cytokine expression Ccl2 (mRNA)” value [4, 11] was 0.907 fold, the “Inflammatory cytokine expression Ccl5 (mRNA)” value [4, 11] was 1.113 fold and the “Inflammatory cytokine expression Cxcl1 (mRNA)” value [4, 11] was 0.968 fold. The “Inflammatory cytokine expression Tnf (mRNA)” value [4, 11] was 1.066 fold, the “Inflammatory cytokine expression Il-6 (mRNA)” value ([4]; WT microglia, LPS 1 μg/mL 12 h, 0.5 μM chlorpromazine (Group 6), normalized to Actb) was 0.947 fold and the “mRNA levels of circadian clock-controlled cytokines (in words)” value ([4]; wild-type microglia, groups 5 and 6, LPS) was “not affected”. The “Y-maze Alternation %” value [5, 12] was 72.000 ± 3.964%, the “Y-maze No. of Arm entry” value [5, 12] was 16.500 ± 1.368 and the “Y-maze Alternation %” value [5, 13] was 77.714 ± 4.699%. For the same compound, the “Y-maze No. of Arm entry” value [5, 13] was 18.286 ± 1.063, the “LPS-induced memory decline, arm alternation in Y-maze (in words)” value ([5]; LPS-injected Psen2 mutation mouse model, group 48) was “sufficient recovery” and the “memory performance, arm alternation in Y-maze (in words)” value ([5]; Psen2 mutation mice, chlorpromazine alone vs no drug treatment) was “no significant different memory performance”. For the same compound, the “Nr1d1 mRNA expression” value ([6]; KI/+ microglia, no LPS, 0.5 μM chlorpromazine (Group 30), mean±SEM) was 0.976 ± 0.094 fold and the “Nr1d1 mRNA expression level (in words)” value ([6]; Psen2 mutation microglia, group 30, chlorpromazine 0.5 μM) was “restored to the level in the wild-type group”.
